Laboratory results published in patent US20230233453A1, “SUXAMETHONIUM COMPOSITION AND PREFILLED SYRINGE THEREOF” (LABORATOIRE AGUETTANT, priority 2020, published 2023).

What was measured:
[1] = Degradation of suxamethonium depending on pH; assay type: physicochemical; conditions: pH 5.0 vs pH 3.5
[2] = Sensitivity of suxamethonium to oxidizing conditions; assay type: physicochemical

C[N+](C)(C)CCOC(=O)CCC(=O)OCC[N+](C)(C)C [suxamethonium]
degradation depending on pH [1]: faster at pH 5.0 than at pH 3.5
sensitivity to oxidizing conditions [2]: not sensitive to oxidizing conditions
